Measured values taken from patent publication US20200060276A1, “THIAZOLE COMPOUND AND HERBICIDE” (OAT Agrio Co., Ltd., priority 2017, published 2020).

Tests used:
Type in all cases: in vivo
[1] = test system: Echinochloa crus-galli (L.) P. Beauv. var. formosensis Ohwi; experiment: Test for Herbicidal Effect in Flooding Treatment (#1), ECHDG; settings: flooding treatment at seeding, dose 2 kg/ha, visual observation on day 21
Method: (§1) (#1) Test for Herbicidal Effect in Flooding Treatment: Styrol cups each having an opening diameter of 8 cm (about 52 cm^2) were respectively filled with soil (45 ml) which had been passed through a sieve (2 mm). Water (about 115 ml) was mixed with the soil such that the soil was flooded. After the soil stood still for 24 hours, Monochoria vaginalis, Echinochloa crus-galli (L.) P. Beauv. var. formosensis Ohwi, Cyperus difformis (umbrella sedge), and Scirpus juncoides were seeded. Each of the compounds of the present invention was dissolved in acetone, and the obtained product was then diluted with water containing Tween 80®. Each of the resultant chemical solutions was dropped on the entire surface of an associated one of treatment sections, so that each section was treated with 1 ml of the respective chemical solution (a dose of 2 kg/ha). After the treatment, the plants were grown in a glasshouse. On day 21, a survey was conducted on the herbicidal activity by visual observation, and evaluation was made according to the following criteria. 0: Growth inhibition effect is less than 10%. 1: Growth inhibition effect is equal to or greater than 10%, and less than 30%. 2; Growth inhibition effect is equal to or greater than 30%, and less than 50%. 3: Growth inhibition effect equal to or greater than 50%, and less than 70%. 4: Growth inhibition effect is equal to or greater than 70%, and less than 90%. 5: Growth inhibition effect is equal to or greater than 90%, or complete withering is achieved. ECHDG=Echinochloa crus-galli (L.) P. Beauv. var. formosensis Ohwi, MONVA=Monochoria vaginalis, SCIJU=Scirpus juncoides, CYMIC=Cyperus microiria.

Scirpus juncoides = experiment: Test for Herbicidal Effect in Flooding Treatment (#1), SCIJU; settings: flooding treatment at seeding, dose 2 kg/ha, visual observation on day 21
Method: as §1

[2] = test system: Echinochloa crus-galli (L.) P. Beauv. var. formosensis Ohwi; experiment: Test for Herbicidal Effect in Flooding Treatment (#2), ECHDG at 2-2.5 leaf stage; settings: flooding treatment at 2-2.5 leaf stage, dose 0.2 kg/ha, visual observation on day 21
Method: (#2) Test for Herbicidal Effect in Flooding Treatment: Styrol cups each having an opening diameter of 13 cm (about 130 cm^2) were respectively filled with muddy soil (500 ml). Water (about 300 ml) was mixed with the soil such that the soil was flooded. After the soil stood still for 24 hours, Echinochloa crus-galli (L.) P. Beauv. var. formosensis Ohwi was seeded. When the Echinochloa crus-galli (L.) P. Beauv. var. formosensis Ohwi grew to reach 2-2.5 leaf stage, chemical solutions were dropped on the entire surface of treatment sections, so that each section is treated with 1 ml of the respective chemical solution (a dose of 0.2 kg/ha). Each of the chemical solutions was prepared by dissolving associated one of the compounds of the present invention in acetone, followed by dilution with water containing Tween 80 g. After the treatment, the plants were grown in a glasshouse. On day 21, a survey was conducted on the herbicidal activity by visual observation, and evaluation was made according to the following criteria. 0: Growth inhibition effect is less than 10%. 1: Growth inhibition effect is equal to or greater than 10%, and less than 30%. 2; Growth inhibition effect is equal to or greater than 30%, and less than 50%. 3: Growth inhibition effect equal to or greater than 50%, and less than 70%. 4: Growth inhibition effect is equal to or greater than 70%, and less than 90%. 5: Growth inhibition effect is equal to or greater than 90%, or complete withering is achieved. ECHDG=Echinochloa crus-galli (L.) P. Beauv. var. formosensis Ohwi, MONVA=Monochoria vaginalis, SCIJU=Scirpus juncoides, CYMIC=Cyperus microiria. The herbicidal activity of the following comparative compounds A and B (the compounds disclosed Japanese Unexamined Patent Publication No. 2003-096059) were evaluated in a manner pursuant to Test Example 1. (#2).

| Structure (SMILES) | ECHDG #1 herbicidal effect (growth inhibition grade) [1] | SCIJU #1 herbicidal effect (growth inhibition grade) (Scirpus juncoides) | ECHDG (2-2.5L) #2 herbicidal effect (growth inhibition grade) [2] |
| --- | --- | --- | --- |
| COCOc1cccc(F)c1CS(=O)(=O)c1ncc(Cl)s1 [Compound 1C-37] | 5 (Growth inhibition effect is equal to or greater than 90%, or complete withering is achieved) | 5 (Growth inhibition effect is equal to or greater than 90%, or complete withering is achieved) | 5 (Growth inhibition effect is equal to or greater than 90%, or complete withering is achieved) |
| O=S(=O)(Cc1c(F)cccc1OC(F)(F)F)c1ncc(Cl)s1 [Compound 1C-48] | 5 (Growth inhibition effect is equal to or greater than 90%, or complete withering is achieved) | 5 (Growth inhibition effect is equal to or greater than 90%, or complete withering is achieved) | 5 (Growth inhibition effect is equal to or greater than 90%, or complete withering is achieved) |
| O=S(=O)(Cc1c(OCC(F)(F)F)cccc1C(F)(F)F)c1ncc(Cl)s1 [Compound 1C-56] | 5 (Growth inhibition effect is equal to or greater than 90%, or complete withering is achieved) | 5 (Growth inhibition effect is equal to or greater than 90%, or complete withering is achieved) | 5 (Growth inhibition effect is equal to or greater than 90%, or complete withering is achieved) |
| O=S(=O)(Cc1ccccc1OC(F)(F)C(F)F)c1ncc(Cl)s1 [Compound 1C-57] | 5 (Growth inhibition effect is equal to or greater than 90%, or complete withering is achieved) | 5 (Growth inhibition effect is equal to or greater than 90%, or complete withering is achieved) | 5 (Growth inhibition effect is equal to or greater than 90%, or complete withering is achieved) |
| O=S(=O)(Cc1ccc(OCc2ccccc2)cc1)c1ncc(Cl)s1 [Compound 1C-120] | 5 (Growth inhibition effect is equal to or greater than 90%, or complete withering is achieved) | 4 (Growth inhibition effect is equal to or greater than 70%, and less than 90%) | 2 (Growth inhibition effect is equal to or greater than 30%, and less than 50%) |
| CC(C)(c1c(F)cccc1OC(F)F)S(=O)(=O)c1ncc(Cl)s1 [Compound 1C-141] | 5 (Growth inhibition effect is equal to or greater than 90%, or complete withering is achieved) | 5 (Growth inhibition effect is equal to or greater than 90%, or complete withering is achieved) | 4 (Growth inhibition effect is equal to or greater than 70%, and less than 90%) |
| COc1cccc(Cl)c1CS(=O)(=O)c1ncc(Br)s1 [Compound 1C-151] | 5 (Growth inhibition effect is equal to or greater than 90%, or complete withering is achieved) | 5 (Growth inhibition effect is equal to or greater than 90%, or complete withering is achieved) | 5 (Growth inhibition effect is equal to or greater than 90%, or complete withering is achieved) |
| O=S(=O)(Cc1ccccc1OC(F)F)c1ncc(Br)s1 [Compound 1C-152] | 5 (Growth inhibition effect is equal to or greater than 90%, or complete withering is achieved) | 5 (Growth inhibition effect is equal to or greater than 90%, or complete withering is achieved) | 5 (Growth inhibition effect is equal to or greater than 90%, or complete withering is achieved) |
| O=S(=O)(Cc1c(F)cccc1OC(F)(F)F)c1ncc(Br)s1 [Compound 1C-158] | 5 (Growth inhibition effect is equal to or greater than 90%, or complete withering is achieved) | 5 (Growth inhibition effect is equal to or greater than 90%, or complete withering is achieved) | 5 (Growth inhibition effect is equal to or greater than 90%, or complete withering is achieved) |
| O=S(=O)(Cc1c(Cl)cccc1OC(F)(F)F)c1ncc(Br)s1 [Compound 1C-159] | 5 (Growth inhibition effect is equal to or greater than 90%, or complete withering is achieved) | 5 (Growth inhibition effect is equal to or greater than 90%, or complete withering is achieved) | 5 (Growth inhibition effect is equal to or greater than 90%, or complete withering is achieved) |
| CCS(=O)(=O)c1cccc(F)c1CS(=O)(=O)c1ncc(Cl)s1 [Compound 1C-174] | 5 (Growth inhibition effect is equal to or greater than 90%, or complete withering is achieved) | 5 (Growth inhibition effect is equal to or greater than 90%, or complete withering is achieved) | 4 (Growth inhibition effect is equal to or greater than 70%, and less than 90%) |
| O=S(=O)(Cc1c(Cl)cc(OC(F)F)cc1Cl)c1ncc(Cl)s1 [Compound 1C-175] | 5 (Growth inhibition effect is equal to or greater than 90%, or complete withering is achieved) | 5 (Growth inhibition effect is equal to or greater than 90%, or complete withering is achieved) | 5 (Growth inhibition effect is equal to or greater than 90%, or complete withering is achieved) |
| O=S(=O)(Cc1c(F)cc(OC(F)F)cc1F)c1ncc(Cl)s1 [Compound 1C-176] | 5 (Growth inhibition effect is equal to or greater than 90%, or complete withering is achieved) | 5 (Growth inhibition effect is equal to or greater than 90%, or complete withering is achieved) | 5 (Growth inhibition effect is equal to or greater than 90%, or complete withering is achieved) |
| O=S(=O)(Cc1c(F)cccc1OCF)c1ncc(Cl)s1 [Compound 1C-179] | 5 (Growth inhibition effect is equal to or greater than 90%, or complete withering is achieved) | 5 (Growth inhibition effect is equal to or greater than 90%, or complete withering is achieved) | 5 (Growth inhibition effect is equal to or greater than 90%, or complete withering is achieved) |
| O=S(=O)(Cc1c(Cl)ccc(OC(F)F)c1F)c1ncc(Cl)s1 [Compound 1C-180] | 5 (Growth inhibition effect is equal to or greater than 90%, or complete withering is achieved) | 5 (Growth inhibition effect is equal to or greater than 90%, or complete withering is achieved) | 5 (Growth inhibition effect is equal to or greater than 90%, or complete withering is achieved) |
| O=C(O)COc1cccc(F)c1CS(=O)(=O)c1ncc(Cl)s1 [Compound 1C-183] | 5 (Growth inhibition effect is equal to or greater than 90%, or complete withering is achieved) | 5 (Growth inhibition effect is equal to or greater than 90%, or complete withering is achieved) | 3 (Growth inhibition effect equal to or greater than 50%, and less than 70%) |
| O=S(=O)(Cc1c(F)cccc1OS(=O)(=O)C(F)(F)F)c1ncc(Cl)s1 [Compound 1C-185] | 5 (Growth inhibition effect is equal to or greater than 90%, or complete withering is achieved) | 5 (Growth inhibition effect is equal to or greater than 90%, or complete withering is achieved) | 5 (Growth inhibition effect is equal to or greater than 90%, or complete withering is achieved) |
